According to the supplement of paper PMC10307832:

Experiments:
Experiment in all cases: relative viability (nuclei count vs DMSO), 5 days (fraction); higher = more cells survive
[1] = system: NCI-H2170
In short: (§1)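 Lung cancer cell lines in 1536-well plates got either a single drug or a fixed anchor-drug dose together with five library-drug doses (not always all listed) in √10 steps, by pin tool, on the day after seeding. Nuclei were counted after 5 days, and relative viability is the treated-to-vehicle ratio of nuclei counts. Values are medians of duplicate plates.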

[2] = system: NCI-H2405
In short: as §1

[3] = system: ChaGo-K-1
In short: as §1

[4] = system: NCI-H3122
In short: as §1

[5] = system: NCI-H1734
In short: as §1

[6] = system: NCI-H1793
In short: as §1

[7] = system: NCI-H2228
In short: as §1

[8] = system: UMC-11
In short: as §1

[9] = system: NCI-H1395
In short: as §1

[10] = system: RERF-LC-KJ
In short: as §1

[11] = system: CAL-12T
In short: as §1

[12] = system: LC-2-ad
In short: as §1

[13] = system: NCI-H1651
In short: as §1

[14] = system: NCI-H1755
In short: as §1

[15] = system: NCI-H460
In short: as §1

[16] = system: LU99A
In short: as §1

[17] = system: ABC-1
In short: as §1

[18] = system: LOU-NH91
In short: as §1

[19] = system: HCC-366
In short: as §1

[20] = system: PC-3 [JPC-3]
In short: as §1

[21] = system: EPLC-272H
In short: as §1

[22] = system: HCC-78
In short: as §1

[23] = system: NCI-H2087
In short: as §1

[24] = system: NCI-H1944
In short: as §1

Q: How did the relative viability ([1]; first compound 0.01 µM) turn out when `CC(C)Oc1cc(Nc2nc(N[C@@H](C)c3ccc(F)cn3)ncc2Cl)n[nH]1` [AZ23] + CC(=O)c1c(C)c2cnc(Nc3ccc(N4CCNCC4)cn3)nc2n(C2CCCC2)c1=O [Palbociclib] (partner 0.5 µM) was run?
A: Its relative viability is 0.451.

Q: What about the relative viability ([1]; first compound 0.03162 µM) of the same molecule?
A: The relative viability was 0.645.

Q: And the relative viability ([1]; first compound 0.3162 µM)?
A: The relative viability was 0.473.

Q: And the relative viability ([2]; first compound 0.01 µM)?
A: The relative viability was 0.585.

Q: And the relative viability ([2]; first compound 0.03162 µM)?
A: Its relative viability is 0.52.

Q: What about the relative viability ([2]; first compound 0.3162 µM) of the same molecule?
A: Its relative viability is 0.589.

Q: And the relative viability ([3]; first compound 0.01 µM)?
A: The relative viability was 1.12.

Q: What about the relative viability ([3]; first compound 0.03162 µM) of the same molecule?
A: The relative viability was 0.97.

Q: And the relative viability ([3]; first compound 0.3162 µM)?
A: Its relative viability is 1.

Q: And the relative viability ([4]; first compound 0.01 µM)?
A: The relative viability was 0.197.

Q: What about the relative viability ([4]; first compound 0.03162 µM) of the same molecule?
A: The relative viability was 0.173.

Q: And the relative viability ([4]; first compound 0.3162 µM)?
A: Its relative viability is 0.23.

Q: And the relative viability ([5]; first compound 0.01 µM)?
A: Its relative viability is 0.317.

Q: And the relative viability ([5]; first compound 0.03162 µM)?
A: The relative viability was 0.366.

Q: What about the relative viability ([5]; first compound 0.3162 µM) of the same molecule?
A: The relative viability was 0.359.

Q: What about the relative viability ([6]; first compound 0.01 µM) of the same molecule?
A: The relative viability was 0.347.

Q: What about the relative viability ([6]; first compound 0.03162 µM) of the same molecule?
A: Its relative viability is 0.35.

Q: What about the relative viability ([6]; first compound 0.3162 µM) of the same molecule?
A: Its relative viability is 0.247.

Q: And the relative viability ([7]; first compound 0.01 µM)?
A: The relative viability was 0.809.

Q: And the relative viability ([7]; first compound 0.03162 µM)?
A: Its relative viability is 0.811.

Q: What about the relative viability ([7]; first compound 0.3162 µM) of the same molecule?
A: The relative viability was 0.907.

Q: And the relative viability ([8]; first compound 0.01 µM)?
A: The relative viability was 0.341.

Q: And the relative viability ([8]; first compound 0.03162 µM)?
A: The relative viability was 0.338.

Q: What about the relative viability ([8]; first compound 0.3162 µM) of the same molecule?
A: The relative viability was 0.353.

Q: What about the relative viability ([9]; first compound 0.03162 µM) of the same molecule?
A: The relative viability was 0.694.

Q: And the relative viability ([9]; first compound 0.3162 µM)?
A: The relative viability was 0.641.

Q: What about the relative viability ([10]; first compound 0.01 µM) of the same molecule?
A: The relative viability was 1.13.

Q: What about the relative viability ([10]; first compound 0.03162 µM) of the same molecule?
A: Its relative viability is 1.14.

Q: What about the relative viability ([10]; first compound 0.3162 µM) of the same molecule?
A: Its relative viability is 1.14.

Q: And the relative viability ([11]; first compound 0.03162 µM)?
A: Its relative viability is 0.285.

Q: And the relative viability ([11]; first compound 0.3162 µM)?
A: The relative viability was 0.414.

Q: What about the relative viability ([12]; first compound 0.01 µM) of the same molecule?
A: The relative viability was 0.593.

Q: And the relative viability ([12]; first compound 0.03162 µM)?
A: Its relative viability is 0.529.

Q: And the relative viability ([12]; first compound 0.3162 µM)?
A: The relative viability was 0.501.

Q: And the relative viability ([13]; first compound 0.01 µM)?
A: The relative viability was 0.523.

Q: And the relative viability ([13]; first compound 0.03162 µM)?
A: The relative viability was 0.526.

Q: And the relative viability ([13]; first compound 0.3162 µM)?
A: Its relative viability is 0.505.

Q: What about the relative viability ([14]; first compound 0.01 µM) of the same molecule?
A: The relative viability was 0.472.

Q: And the relative viability ([14]; first compound 0.03162 µM)?
A: The relative viability was 0.488.

Q: And the relative viability ([14]; first compound 0.3162 µM)?
A: The relative viability was 0.49.

Q: What about the relative viability ([15]; first compound 0.01 µM) of the same molecule?
A: Its relative viability is 0.0638.

Q: What about the relative viability ([15]; first compound 0.03162 µM) of the same molecule?
A: The relative viability was 0.146.

Q: What about the relative viability ([15]; first compound 0.3162 µM) of the same molecule?
A: Its relative viability is 0.127.

Q: And the relative viability ([16]; first compound 0.01 µM)?
A: Its relative viability is 0.39.

Q: What about the relative viability ([16]; first compound 0.03162 µM) of the same molecule?
A: Its relative viability is 0.468.

Q: What about the relative viability ([16]; first compound 0.3162 µM) of the same molecule?
A: The relative viability was 0.371.

Q: What about the relative viability ([17]; first compound 0.01 µM) of the same molecule?
A: The relative viability was 0.765.

Q: And the relative viability ([17]; first compound 0.03162 µM)?
A: The relative viability was 0.82.

Q: And the relative viability ([17]; first compound 0.3162 µM)?
A: Its relative viability is 0.694.

Q: What about the relative viability ([18]; first compound 0.01 µM) of the same molecule?
A: Its relative viability is 0.574.

Q: And the relative viability ([18]; first compound 0.03162 µM)?
A: Its relative viability is 0.544.

Q: And the relative viability ([18]; first compound 0.3162 µM)?
A: Its relative viability is 0.546.

Q: What about the relative viability ([19]; first compound 0.01 µM) of the same molecule?
A: The relative viability was 0.303.

Q: What about the relative viability ([19]; first compound 0.03162 µM) of the same molecule?
A: The relative viability was 0.513.

Q: And the relative viability ([19]; first compound 0.3162 µM)?
A: Its relative viability is 0.458.

Q: And the relative viability ([20]; first compound 0.01 µM)?
A: Its relative viability is 0.552.

Q: What about the relative viability ([20]; first compound 0.03162 µM) of the same molecule?
A: The relative viability was 0.611.

Q: And the relative viability ([20]; first compound 0.3162 µM)?
A: The relative viability was 0.536.

Q: What about the relative viability ([21]; first compound 0.03162 µM) of the same molecule?
A: The relative viability was 0.279.

Q: What about the relative viability ([21]; first compound 0.3162 µM) of the same molecule?
A: The relative viability was 0.315.

Q: What about the relative viability ([22]; first compound 0.01 µM) of the same molecule?
A: Its relative viability is 0.533.

Q: And the relative viability ([22]; first compound 0.03162 µM)?
A: The relative viability was 0.463.

Q: And the relative viability ([22]; first compound 0.3162 µM)?
A: Its relative viability is 0.544.

Q: And the relative viability ([23]; first compound 0.01 µM)?
A: The relative viability was 0.255.

Q: And the relative viability ([23]; first compound 0.03162 µM)?
A: The relative viability was 0.21.

Q: And the relative viability ([23]; first compound 0.3162 µM)?
A: Its relative viability is 0.22.

Q: And the relative viability ([24]; first compound 0.01 µM)?
A: The relative viability was 0.304.

Q: And the relative viability ([24]; first compound 0.03162 µM)?
A: The relative viability was 0.342.

Q: And the relative viability ([24]; first compound 0.3162 µM)?
A: Its relative viability is 0.278.
